Laboratory results from article PMC7294809, “Discovery of an Allosteric Binding Site in Kinetoplastid Methionyl-tRNA Synthetase” (ACS Infectious Diseases, 2020).
Values after ≈ are worked out from the molar mass of the structure shown. Like-named read-outs stand apart in the source and are kept apart here. Marks after values point to notes of the source that are not given here.

Key:
[1] = target: T1, LdMetRS (Leishmania donovani, UniProt A0A3Q8IBX2); conditions: read-out: LdMetRS Km app; cited from earlier work
[2] = target: T2, TcMetRS (Trypanosoma cruzi, UniProt Q4D6H2); experiment: TcMetRS kinetic parameter determinations (Km app); type: biochemical
Procedure: (§1) The activity of the TcMetRS enzyme was determined by monitoring levels of pyrophosphate released during the first step of the enzymatic reaction. The pyrophosphate formed was converted to two inorganic phosphate molecules using a pyrophosphatase enzyme, and levels of the resulting phosphate molecules were measured using the BIOMOL Green reagent (Enzo Life Sciences).
(§2) TcMetRS assays were carried out using 384-well, clear, flat-bottomed plates (Greiner) at room temperature (∼23 °C) in 50 μL reaction volumes of assay buffer (30 mM Tris, pH 8.0, 140 mM NaCl, 30 mM KCl, 40 mM MgCl2, 0.01% (v/v) Brij-35, 1 mM DTT) plus 1 U/mL pyrophosphatase and varying concentrations of enzyme and substrates. Enzyme linearity was assessed in a 90 min end-point assay with varying TcMetRS concentrations (0–320 nM), 50 μM L-methionine, and 100 μM ATP. Reactions were stopped with the addition of 50 μL of BIOMOL Green reagent, with the signal allowed to develop for 30 min before the absorbance of each well was read at 650 nm (A650) using a PheraStar plate reader (BMG).
(§3) Apparent Michaelis constants (Km^app) for the L-methionine and ATP substrates were determined in end-point assays using the above buffer conditions and 80 nM recombinant TcMetRS. […] To determine the ATP Km^app, various ATP concentrations were tested in the presence of a fixed, saturating concentration of L-methionine (3 mM). […]

[3] = target: T2, TcMetRS; experiment: TcMetRS BIOMOL Green biochemical assay, 10-point dose response
[4] = target: T1, LdMetRS; set-up: method as in PMID 28967262; conditions: cited from earlier work
[5] = system: leishmaniasis animal model; set-up: method as in PMID 28967262; conditions: cited from earlier work
[6] = target: T1, LdMetRS; experiment: LdMetRS mode of inhibition studies; type: biochemical; conditions: for Ki / h (inhibitor Hill slope) / β (fraction of activity remaining) / Vmax / n (substrate Hill slope) / Ks: LdMetRS; for Ki: fit to eq 7, ± SE of fit; for Vmax: global fit parameter; for n (substrate Hill slope) / Ks: global fit; for Ks: substrate dissociation constant
Excerpt: Subsequent full mode of inhibition studies with compounds from the MetRS02 series were more challenging due to the partial inhibition profiles of some compounds resulting in poor global fits to the standard competitive, uncompetitive, and noncompetitive inhibition models (eqs 3, 4, and 5, respectively). In addition, during the enzymatic characterization of methionine binding to LdMetRS, a Hill slope of <1 was obtained (and was hypothesized to be due to conformational selection).[6] This low Hill slope is also not factored into the standard inhibition models described (eqs 3–5). New models with additional parameters to account for the partial inhibition and low methionine Hill slope were therefore required (eqs 6 and 7). Using these modified equations, the mode of inhibition of compound 27 was carried out by testing LdMetRS enzyme activity under varying substrate concentrations at various inhibitor concentrations (Figure 5). The cooperative, noncompetitive, partial inhibition model (eq 7) was confirmed as the best fit (using F-test analyses), with a noncompetitive mode of inhibition consistent with binding in an allosteric binding pocket. The returned fit parameters are shown in Table 4 and are presented with the standard error (SE) of the fit to eq 7.
(§4) Using GraFit v6.0 (Erithacus Software), each data set was globally fitted to standard competitive, uncompetitive, and noncompetitive inhibition models (eqs 3–5).
(§5) Equation 5 (noncompetitive inhibition model): [drawing 5] 5 On the basis of poor data fits to the above models, partial inhibition and cooperativity parameters were introduced into the uncompetitive and noncompetitive models as previously described by Skovpen et al.[30],[31] Mode of inhibition data were globally fitted to these modified equations (eqs 6 and 7).
(§6) Equation 7 (cooperative, noncompetitive, partial inhibition model): [drawing 7] 7 v is the velocity, Vmax is the maximum velocity, [S] is the substrate concentration, [I] is the inhibitor concentration, Ki is the inhibitor constant, Ks is the substrate dissociation constant, n is the substrate Hill slope, h is the inhibitor Hill slope, and β is the proportionality constant (fraction of activity remaining when the enzyme is fully saturated with inhibitor).
(§7) If more than one model appeared possible, then data were fitted to both and examined for significance using the F-test function in GraFit.

[7] = target: T2, TcMetRS; experiment: TcMetRS mode of inhibition studies; type: biochemical; conditions: for Ki / h (inhibitor Hill slope) / β (fraction of activity remaining) / Vmax / n (substrate Hill slope) / Ks: TcMetRS; for Ki: fit to eq 7, ± SE of fit; for Vmax: global fit parameter; for n (substrate Hill slope) / Ks: global fit; for Ks: substrate dissociation constant
Excerpt: It was therefore feasible to perform TcMetRS mode inhibition studies with this compound. These studies, carried out as previously described for LdMetRS, confirm a best fit to the same partial, cooperative, noncompetitive inhibition model (eq 7; Supporting Information Figure 6 and Table 4).
as §4, §5, §6, §7

[8] = Aqueous solubility, filtration-based method; type: physicochemical; conditions: aqueous buffer, kinetic from dmso stock; phosphate-buffered saline pH 7.4, 24 h, 25 °C
Procedure: Solubility was assessed using a filtration-based method. Test compounds were dissolved in DMSO to give 10 mM solutions. Five microliters of the 10 mM solution was added to 195 μL of phosphate-buffered saline at pH 7.4 and mixed for 24 h (rotary mixing, 900 rpm, 25 °C) excluding light. After mixing, the samples were filtered to remove any undissolved material using a Millipore Multiscreen HTS filter. The filtrate was analyzed for dissolved drug compounds using UHPLC.

[9] = target: T1, LdMetRS; experiment: LdMetRS BIOMOL Green biochemical assay, 10-point dose response
[10] = CHI LogD measurement; type: physicochemical; conditions: chromatographic hydrophobicity index
Procedure: CHI LogD measurements were performed as described elsewhere.[29] cLogP measurements were calculated using StarDrop (Optibrium).

[11] = substrate: CSCC[C@H](N)C(=O)O; experiment: TcMetRS kinetic parameter determinations (Km app); type: biochemical, Trypanosoma cruzi; conditions: other: saturating 350 μM ATP; N = 3; pH 8.0; 23.0 °C
Procedure: as §1, §2, §3

T1 sequence (A0A3Q8IBX2 entry or part of it): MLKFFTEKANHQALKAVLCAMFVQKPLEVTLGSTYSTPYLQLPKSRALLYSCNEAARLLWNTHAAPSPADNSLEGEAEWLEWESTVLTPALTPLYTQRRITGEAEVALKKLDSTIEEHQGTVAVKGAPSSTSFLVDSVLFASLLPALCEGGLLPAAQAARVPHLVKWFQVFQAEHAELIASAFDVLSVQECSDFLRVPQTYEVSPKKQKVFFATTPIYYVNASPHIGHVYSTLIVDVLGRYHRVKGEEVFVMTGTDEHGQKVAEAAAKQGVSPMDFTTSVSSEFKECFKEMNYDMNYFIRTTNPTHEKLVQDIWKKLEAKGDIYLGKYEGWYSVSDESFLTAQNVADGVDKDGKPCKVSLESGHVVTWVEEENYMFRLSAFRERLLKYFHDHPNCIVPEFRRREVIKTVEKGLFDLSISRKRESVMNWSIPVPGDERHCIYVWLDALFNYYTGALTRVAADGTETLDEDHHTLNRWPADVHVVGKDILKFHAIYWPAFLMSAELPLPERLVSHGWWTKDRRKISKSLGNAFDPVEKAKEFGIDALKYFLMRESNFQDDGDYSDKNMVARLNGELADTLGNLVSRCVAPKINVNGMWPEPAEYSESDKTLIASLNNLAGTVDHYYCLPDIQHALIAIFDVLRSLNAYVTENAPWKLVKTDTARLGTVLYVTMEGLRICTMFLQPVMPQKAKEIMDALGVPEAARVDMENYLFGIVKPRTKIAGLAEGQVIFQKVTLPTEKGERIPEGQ

For `Nc1ncnc2c1ncn2[C@@H]1O[C@H](COP(=O)(O)OP(=O)(O)OP(=O)(O)O)[C@@H](O)[C@H]1O` [ATP], the Km [1] is given as 37 µM, the substrate inhibition constant ([2]; ATP, 3 mM methionine) is given as 2080 µM and the Km ([2]; saturating 3 mM methionine, N = 3, read-out: TcMetRS apparent Michaelis constant (Km app) for ATP) is given as 63 µM.

For `O=c1nc(NCCCNCc2cc3c(Cl)cc(Cl)cc3[nH]2)[nH]c2ccccc12` [DDD806905, reference compound], the IC50 ([3]; 50 μM methionine, 100 μM ATP, 80 nM TcMetRS, read-out: TcMetRS pIC50 (converted)) is listed as 39.8 nM, the IC50 ([3]; 50 μM methionine, 100 μM ATP, 80 nM TcMetRS, tight binding limit likely reached, read-out: TcMetRS IC50) is listed as 38 nM and the “LdMetRS pIC50” value [4] is listed as 7.0. For the same molecule, the in vivo efficacy [5] was “failed to show in vivo efficacy”.

For `CSCC[C@H](N)C(=O)O` [methionine], the Km [1] is given as 173 µM.

For `COC(=O)CNc1nc(Nc2ccc(F)c(F)c2)nc2c1cnn2C` [Compound 27], the IC50 [3] was greater than 100000 nM, the Emax ([3]; read-out: TcMetRS Maximum % Inhibition) was 44.2 ± 6.5% and the Ki ([6]; varied substrate ATP) was 1580 ± 40 nM. For the same molecule, the Ki ([6]; varied substrate methionine) was 2060 ± 40 nM, the “h (inhibitor Hill slope)” value ([6]; substrate ATP, eq 7) was 1.10 ± 0.02 and the “β (fraction of activity remaining)” value ([6]; substrate ATP, eq 7) was 0.027 ± 0.005. For the same molecule, the Vmax ([6]; substrate ATP, eq 7) was 0.324 ± 0.004 μM Piformed/min, the “n (substrate Hill slope)” value ([6]; substrate ATP, eq 7) was 1.07 ± 0.02 ^b and the Ks ([6]; substrate ATP, eq 7) was 21.1 ± 0.6 µM. For the same molecule, the “h (inhibitor Hill slope)” value ([6]; substrate methionine, eq 7) was 1.05 ± 0.02, the “β (fraction of activity remaining)” value ([6]; substrate methionine, eq 7) was 0.060 ± 0.005 and the Vmax ([6]; substrate methionine, eq 7) was 0.388 ± 0.009 μM Piformed/min. The “n (substrate Hill slope)” value ([6]; substrate methionine, eq 7) was 0.50 ± 0.01, the Ks ([6]; substrate methionine, eq 7) was 327 ± 35 µM and the “mode of inhibition, LdMetRS” value ([6]; best fit by F-test, eq 7) was “noncompetitive”. For the same molecule, the “fold difference in Ki, TcMetRS versus LdMetRS” value ([7]; Ki from mode of inhibition studies, Table 4) was 5–7 fold, the Ki ([7]; varied substrate ATP) was 11300 ± 1200 nM and the Ki ([7]; varied substrate methionine) was 10800 ± 700 nM. For the same molecule, the “h (inhibitor Hill slope)” value ([7]; substrate ATP, eq 7) was 1.27 ± 0.14, the “β (fraction of activity remaining)” value ([7]; substrate ATP, eq 7) was 0.48 ± 0.02 and the Vmax ([7]; substrate ATP, eq 7) was 0.287 ± 0.006 μM Piformed/min. For the same molecule, the “n (substrate Hill slope)” value ([7]; substrate ATP, eq 7) was 1.07 ± 0.03 ^b, the Ks ([7]; substrate ATP, eq 7) was 40.5 ± 2.0 µM and the “h (inhibitor Hill slope)” value ([7]; substrate methionine, eq 7) was 1.48 ± 0.11. For the same molecule, the “β (fraction of activity remaining)” value ([7]; substrate methionine, eq 7) was 0.65 ± 0.01, the Vmax ([7]; substrate methionine, eq 7) was 0.429 ± 0.016 μM Piformed/min and the “n (substrate Hill slope)” value ([7]; substrate methionine, eq 7) was 0.42 ± 0.01. For the same molecule, the Ks ([7]; substrate methionine, eq 7) was 1340 ± 237 µM, the “mode of inhibition, TcMetRS” value ([7]; best fit, eq 7) was “noncompetitive” and the solubility at 24 h [8] was 5.5 µM (≈ 1.92 µg/mL). For the same molecule, the IC50 ([9]; LdMetRS pIC50, 50 µM ATP and 50 µM methionine) was 1.41e-06 M, the IC50 ([9]; LdMetRS pIC50, 50 μM methionine, 100 μM ATP, 50 nM LdMetRS, pIC50 = −log IC50 (M)) was 1.26e-06 M and the IC50 ([9]; LdMetRS pIC50, both substrate concentrations increased to 500 µM) was 1.41e-06 M. For the same molecule, the “IC50 shift on increasing substrate concentrations” value ([9]; methionine and ATP increased from 50 μM each to 500 μM, preliminary data) was “no IC50 shifts”, the Emax ([9]; read-out: LdMetRS Maximum % Inhibition Plateau) was 92.9% and the chromatographic logD [10] was 2.17.

B1: TcMetRS (Trypanosoma cruzi strain CL Brener) (protein)
chain: MSLKLFSEKANTQALKALLCCHHVKRPVELTLSGAYTSPVLHHPALKQPIFSANEMVRLILHDKWRDDSAGGSGGKKTGCYDGHWASVSLEEEAWLEWEATTFTCAVHPLYTQRRVTPEAAGAFEYLDNKIHENDCRGPCLAPVGEKGTSTKSPSFLVDCIIWCAVLPALCEGGLLGEKEREKLPHLLKWFESFQSAREAHIAGAVESLAVQEFADFLRAPRVYKLSPKISKVFFITTPIYYVNAAPHIGHVYSTLIVDVIGRYHTMKGERVFAMSGTDEHGQKVAEAARQKGMNPYDFTCQVSREFIDCFEQMGYHMDYFIRTTNESHKKVVHELWSKLEAKGDIYLGRYEGWYSVSDESFLTAQNVTDGVDKDGKPCKVSLESGHVVTWLAEDNYMFRLSAFRERLLEWYNNNPGCIVPEFRRREVIRTVEKGLNDLSVSRTREAVQDWAIPVPGNPNHCIYVWLDALSNYYTASRLRLGKSGEELELVEDHRVLERFPADIHVIGKDILKFHAIYWPAFLISAGLPLPKTIVAHGWWTKDRKKISKSLGNVFDPVEKAREFGFDALKYFLLRETGFSDDGDYSDRNMISRLNGELADTLGNLVMRCTSAKINVHRVWPTPDAYNAKDEALIQLIKDLPGVVDHFFLIPDVQKALAAVFDLLRAINSYVTENAPWRLVKTDPDRLRTVLYITMEGTRLATLMLSPVLSQKAPVIFDMLGVPEANRVGVENFGFGVVPSGTSIGDAVEGKVLFPKISLDKAQSA
B1 gave a Km [11] of 212 µM.
